Tests used:
[1] = cited from earlier work
[2] = Half-lives of HAE prophylactic products (from product sources); details: for half-life: human
[3] = Plasma pharmacokinetics of LP01 (LC-MS/MS) in HAE patients; assay type: in vivo, human
Experimental: Blood samples were collected to assess plasma concentration time profiles pre-infusion, during the infusion period, and at the end of the infusion period. Post infusion samples were collected at predefined time points as indicated in the graph (FIG. 37). LP01 (Lipid A) was quantified using liquid chromatography with tandem mass spectrometry (LC-MS/MS) methods. Plasma samples were evaluated using validated methods following regulatory guidelines.

Row | Molecule | Half Life (t1/2) [1] | half-life [2] | half-life ([3]; human, single dose IV infusion of NTLA-2002 25, 50 or 75 mg, range of cohort means, read-out: mean t1/2) | decline below limit of quantification by ([3]; single dose IV infusion of NTLA-2002) | Estimated washout for (5 half-lives) [2]
1 | C#C[C@]1(O)CC[C@H]2[C@@H]3CCC4=Cc5oncc5C[C@]4(C)[C@H]3CC[C@@]21C [Danocrine, Danazol, reference compound] | 9.7 h | 48.5 h |  |  | 
2 | CCCCC/C=C\C/C=C\CCCCCCCC(=O)OCC(COC(=O)CCC(OCCCCCCCC)OCCCCCCCC)COC(=O)OCCCN(CC)CC (centres unmarked) [LP01, (9Z,12Z)-3-((4,4-bis(octyloxy)butanoyl)oxy)-2-((((3-(diethylamino)propoxy)carbonyl)oxy)methyl)propyl octadeca-9,12-dienoate] |  |  | 16.8 to 21.3 h | ≤ 15 days | 
3 | N#Cc1cccc([C@@H](NCC2CC2)c2ccc(F)c(NC(=O)c3cc(C(F)(F)F)nn3-c3cccc(CN)c3)c2)c1 [Orladeyo, Berotralstat, reference compound] | 93 h | 465 h |  |  | 
4 | C[C@]12COC(=O)C[C@@H]1CC[C@@H]1[C@@H]2CC[C@@]2(C)[C@H]1CC[C@]2(C)O [Oxandrin, Oxandrolone] |  | 66.5 h |  |  | 
5 | Cinryze: C1 Esterase Inhibitor [Human], HAE prophylactic product | 56 to 62 h |  |  |  | 310 hours = ~13 days
6 | Haegarda: C1 Esterase Inhibitor [Human], HAE prophylactic product | 69 h |  |  |  | 345 hours = ~14.5 days

Reference: patent US20260240959A1, “METHODS FOR IN VIVO EDITING OF KLKB1” (INTELLIA THERAPEUTICS, INC., priority 2022, published 2026)
